Measured values published in US5672715A, “Herbicidal substituted 3-aryl-pyrazoles” (Monsanto Company, priority 1995, dated 1997).

Assays:
Assay type in all cases: in vivo
Seedling Johnsongrass = assay: pre-emergence herbicide test; details: 0.25 lb/A; for inhibition at 280.212 g/ha: Sorghum halepense, pre-emergence, read-out: % plant inhibition
In short: (§1)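 Soil-applied pre-emergence screen: compound added to cover topsoil over sown seeds, pans held on greenhouse bench with subirrigation, % inhibition scored ~2 weeks later.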

Giant Foxtail = assay: pre-emergence herbicide test; details: Setaria faberi, pre-emergence, 0.25 lb/A; read-out: % plant inhibition
In short: as §1

Corn = assay: pre-emergence herbicide test; details: for inhibition at 7.95803 g/ha: 0.0071 lb/A; for inhibition at 40.0143 g/ha: 0.0357 lb/A; for inhibition at 200.072 g/ha: 0.1785 lb/A; for inhibition at 1000.92 g/ha: 0.893 lb/A
In short: as §1

Cocklebur = assay: pre-emergence herbicide test; details: Xanthium strumarium, pre-emergence, read-out: % plant inhibition; for inhibition at 40.0143 g/ha: 0.0357 lb/A; for inhibition at 200.072 g/ha: 0.1785 lb/A; for inhibition at 280.212 g/ha: 0.25 lb/A; for inhibition at 1000.92 g/ha: 0.893 lb/A
In short: as §1

Velvetleaf = assay: pre-emergence herbicide test; details: Abutilon theophrasti, pre-emergence, read-out: % plant inhibition; for inhibition at 7.95803 g/ha: 0.0071 lb/A; for inhibition at 40.0143 g/ha: 0.0357 lb/A; for inhibition at 200.072 g/ha: 0.1785 lb/A; for inhibition at 280.212 g/ha: 0.25 lb/A; for inhibition at 1000.92 g/ha: 0.893 lb/A
In short: as §1

Yellow Nutsedge = assay: pre-emergence herbicide test; details: Cyperus, read-out: % plant inhibition; for inhibition at 7.95803 g/ha: 0.0071 lb/A; for inhibition at 40.0143 g/ha: 0.0357 lb/A; for inhibition at 200.072 g/ha: 0.1785 lb/A; for inhibition at 1000.92 g/ha: 0.893 lb/A
In short: as §1

Broadleaf Signalgrass = assay: pre-emergence herbicide test; details: Urochloa platyphylla, 0.25 lb/A, read-out: % plant inhibition
In short: as §1

Soybean = assay: pre-emergence herbicide test; details: Glycine max, pre-emergence, read-out: % plant inhibition; for inhibition at 7.95803 g/ha: 0.0071 lb/A; for inhibition at 40.0143 g/ha: 0.0357 lb/A; for inhibition at 280.212 g/ha: 0.25 lb/A; for inhibition at 1000.92 g/ha: 0.893 lb/A
In short: as §1

Wild Proso Millet = assay: pre-emergence herbicide test; details: 0.25 lb/A, read-out: % plant inhibition
In short: as §1

Shattercane = assay: pre-emergence herbicide test; details: 0.25 lb/A, read-out: % plant inhibition
In short: as §1

Yellow Foxtail = assay: pre-emergence herbicide test; details: Setaria, read-out: % plant inhibition; for inhibition at 7.95803 g/ha: 0.0071 lb/A; for inhibition at 40.0143 g/ha: 0.0357 lb/A; for inhibition at 200.072 g/ha: 0.1785 lb/A; for inhibition at 280.212 g/ha: 0.25 lb/A; for inhibition at 1000.92 g/ha: 0.893 lb/A
In short: as §1

Prickly Sida [1] = assay: pre-emergence herbicide test; details: 0.25 lb/A, read-out: % plant inhibition
In short: as §1

Sicklepod = assay: post-emergence herbicide test; details: Senna obtusifolia, 0.25 lb/A, read-out: % plant inhibition
In short: (§2)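 Activity is given as percent inhibition of each species following foliar application. Pots were sprayed individually in a chamber once plants reached two to three weeks.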

Prickly Sida [2] = assay: post-emergence herbicide test; details: 0.25 lb/A, read-out: % plant inhibition
In short: as §2

Black Nightshade = assay: post-emergence herbicide test; details: Solanum nigrum, 0.25 lb/A, read-out: % plant inhibition
In short: as §2

Hemp Sesbania = assay: post-emergence herbicide test; details: 0.25 lb/A, read-out: % plant inhibition
In short: as §2

[3] = Zea mays, pre-emergence, read-out: % plant inhibition

Row | Compound | inhibition at 280.212 g/ha (Seedling Johnsongrass) [%] | inhibition at 280.212 g/ha (Giant Foxtail) [%] | inhibition at 7.95803 g/ha (Corn; [3]) [%] | inhibition at 40.0143 g/ha (Corn; [3]) [%] | inhibition at 200.072 g/ha (Corn; [3]) [%] | inhibition at 1000.92 g/ha (Corn; [3]) [%] | inhibition at 40.0143 g/ha (Cocklebur) [%] | inhibition at 200.072 g/ha (Cocklebur) [%] | inhibition at 280.212 g/ha (Cocklebur) [%] | inhibition at 1000.92 g/ha (Cocklebur) [%] | inhibition at 7.95803 g/ha (Velvetleaf) [%] | inhibition at 40.0143 g/ha (Velvetleaf) [%] | inhibition at 200.072 g/ha (Velvetleaf) [%] | inhibition at 280.212 g/ha (Velvetleaf) [%] | inhibition at 1000.92 g/ha (Velvetleaf) [%] | inhibition at 7.95803 g/ha (Yellow Nutsedge) [%] | inhibition at 40.0143 g/ha (Yellow Nutsedge) [%] | inhibition at 200.072 g/ha (Yellow Nutsedge) [%] | inhibition at 1000.92 g/ha (Yellow Nutsedge) [%] | inhibition at 7.95803 g/ha (Soybean) [%] | also measured
1 | COc1cc(-c2nn(C)c(C(F)(F)F)c2C)c(F)cc1Cl [Compound 37] | 100 | 100 | 25 | 50 | 85 | 100 | 75 | 80 | 60 | 98 | 98 | 100 | 100 | 100 | 100 | 0 | 35 | 50 | 45 | 20 | % plant inhibition (Corn; 0.25 lb/A): 98%; inhibition at 280.212 g/ha (Corn; Zea mays, pre-emergence, 0.25 lb/A, read-out: % plant inhibition): 95%; inhibition at 7.95803 g/ha (Cocklebur; 0.0071 lb/A): 100%; inhibition at 280.212 g/ha (Broadleaf Signalgrass): 100%; inhibition at 40.0143 g/ha (Soybean): 50%; inhibition at 200.072 g/ha (Soybean; 0.1785 lb/A): 50%; inhibition at 280.212 g/ha (Soybean): 35%; inhibition at 1000.92 g/ha (Soybean): 100%; inhibition at 280.212 g/ha (Wild Proso Millet): 100%; inhibition at 280.212 g/ha (Shattercane): 100%; inhibition at 7.95803 g/ha (Yellow Foxtail): 55%; inhibition at 40.0143 g/ha (Yellow Foxtail): 95%; inhibition at 200.072 g/ha (Yellow Foxtail): 100%; inhibition at 280.212 g/ha (Yellow Foxtail): 100%; inhibition at 1000.92 g/ha (Yellow Foxtail): 100%
2 | Cc1c(-c2cc(OCC(=O)OC(C)C)c(Cl)cc2F)nn(C)c1C(F)(F)F [Compound 38] | 30 | 20 | 0 | 0 | 0 | 40 | 65 | 85 | 70 | 90 | 100 | 80 | 98 | 100 | 100 | 0 | 20 | 0 | 85 | 0 | % plant inhibition (Seedling Johnsongrass): 25%; inhibition at 280.212 g/ha (Prickly Sida [1]): 95%; inhibition at 40.0143 g/ha (Soybean): 5%; inhibition at 280.212 g/ha (Soybean): 0%; inhibition at 1000.92 g/ha (Soybean): 70%; inhibition at 7.95803 g/ha (Yellow Foxtail): 0%; inhibition at 40.0143 g/ha (Yellow Foxtail): 0%; inhibition at 200.072 g/ha (Yellow Foxtail): 25%; inhibition at 280.212 g/ha (Yellow Foxtail): 40%; inhibition at 1000.92 g/ha (Yellow Foxtail): 65%; inhibition at 280.212 g/ha (Sicklepod): 20%; inhibition at 280.212 g/ha (Prickly Sida [2]): 50%; inhibition at 280.212 g/ha (Black Nightshade): 100%; inhibition at 280.212 g/ha (Hemp Sesbania): 100%
